Results taken from PubChem BioAssay (NCI).
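Briefly, cells in 96-well plates were exposed to five compound concentrations for 48 h, and endpoints were estimated by linear interpolation. At the TGI there is no net growth.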

Assays:
Assay in all cases: NCI tumour cell line growth inhibition, 48 h
A498 renal = tested on: A498 renal
A549 NSCLC = tested on: A549 NSCLC
CAKI-1 renal = tested on: CAKI-1 renal
CCRF-CEM leukemia = tested on: CCRF-CEM leukemia
COLO 205 colon = tested on: COLO 205 colon
DLD-1 colon = tested on: DLD-1 colon
DMS 114 small cell lung = tested on: DMS 114 small cell lung
DMS 273 small cell lung = tested on: DMS 273 small cell lung
EKVX NSCLC = tested on: EKVX NSCLC
HCC-2998 colon = tested on: HCC-2998 colon
HCT-116 colon = tested on: HCT-116 colon
HCT-15 colon = tested on: HCT-15 colon
HL-60(TB) leukemia = tested on: HL-60(TB) leukemia
HOP-18 NSCLC = tested on: HOP-18 NSCLC
HOP-62 NSCLC = tested on: HOP-62 NSCLC
HOP-92 NSCLC = tested on: HOP-92 NSCLC
HT29 colon = tested on: HT29 colon
IGROV1 ovarian = tested on: IGROV1 ovarian
K-562 leukemia = tested on: K-562 leukemia
KM12 colon = tested on: KM12 colon
KM20L2 colon = tested on: KM20L2 colon
LOX IMVI melanoma = tested on: LOX IMVI melanoma
MALME-3M melanoma = tested on: MALME-3M melanoma
MCF7 breast = tested on: MCF7 breast
MOLT-4 leukemia = tested on: MOLT-4 leukemia
NCI-H226 lung = tested on: NCI-H226 lung
NCI-H23 lung = tested on: NCI-H23 lung
NCI-H460 lung = tested on: NCI-H460 lung
NCI-H522 lung = tested on: NCI-H522 lung
NCI/ADR-RES ovarian = tested on: NCI/ADR-RES ovarian
OVCAR-3 ovarian = tested on: OVCAR-3 ovarian
OVCAR-4 ovarian = tested on: OVCAR-4 ovarian
OVCAR-5 ovarian = tested on: OVCAR-5 ovarian
OVCAR-8 ovarian = tested on: OVCAR-8 ovarian
P388 leukemia = tested on: P388 leukemia
P388/ADR leukemia = tested on: P388/ADR leukemia
RPMI-8226 leukemia = tested on: RPMI-8226 leukemia
RXF 393 renal = tested on: RXF 393 renal
SF-268 CNS = tested on: SF-268 CNS
SF-295 CNS = tested on: SF-295 CNS
SF-539 CNS = tested on: SF-539 CNS
SK-MEL-2 melanoma = tested on: SK-MEL-2 melanoma
SK-MEL-28 melanoma = tested on: SK-MEL-28 melanoma
SK-MEL-5 melanoma = tested on: SK-MEL-5 melanoma
SK-OV-3 ovarian = tested on: SK-OV-3 ovarian
SN12C renal = tested on: SN12C renal
SN12K1 renal = tested on: SN12K1 renal
SNB-19 CNS = tested on: SNB-19 CNS
SNB-75 CNS = tested on: SNB-75 CNS
SNB-78 CNS = tested on: SNB-78 CNS
SW-620 colon = tested on: SW-620 colon
U251 CNS = tested on: U251 CNS
UACC-257 melanoma = tested on: UACC-257 melanoma
UACC-62 melanoma = tested on: UACC-62 melanoma
UO-31 renal = tested on: UO-31 renal
XF 498 CNS = tested on: XF 498 CNS

Measured: TGI

CC1NC(=O)C(C)C(c2ccccc2)N(N=O)C1c1ccccc1 (stereo unspecified)
> 79.1 µM: SK-OV-3 ovarian
> 89.2 µM: P388 leukemia
61.5 µM: HL-60(TB) leukemia
97.1 µM: OVCAR-4 ovarian
> 79.3 µM: SNB-75 CNS
> 100 µM: A498 renal | A549 NSCLC | CAKI-1 renal | CCRF-CEM leukemia | COLO 205 colon | DLD-1 colon | DMS 114 small cell lung | DMS 273 small cell lung | EKVX NSCLC | HCC-2998 colon | HCT-116 colon | HCT-15 colon | HOP-18 NSCLC | HOP-62 NSCLC | HOP-92 NSCLC | HT29 colon | IGROV1 ovarian | K-562 leukemia | KM12 colon | KM20L2 colon | LOX IMVI melanoma | MALME-3M melanoma | MCF7 breast | MOLT-4 leukemia | NCI-H226 lung | NCI-H23 lung | NCI-H460 lung | NCI-H522 lung | NCI/ADR-RES ovarian | OVCAR-3 ovarian | OVCAR-5 ovarian | OVCAR-8 ovarian | P388/ADR leukemia | RPMI-8226 leukemia | RXF 393 renal | SF-268 CNS | SF-295 CNS | SF-539 CNS | SK-MEL-2 melanoma | SK-MEL-28 melanoma | SK-MEL-5 melanoma | SN12C renal | SN12K1 renal | SNB-19 CNS | SNB-78 CNS | SW-620 colon | U251 CNS | UACC-257 melanoma | UACC-62 melanoma | UO-31 renal | XF 498 CNS
